pKd: −log10 of the molar value. Bridge positions count the residues as written; N and C are the ends. Square brackets hold non-standard residues; d marks the D form. Peptide text beside a SMILES is read from it. * marks the point of attachment. Ala(imidazo(1,2-a)pyr3yl) = N[C@@H](Cc1cnc2ccccn12)C(=O)O; NMePhe(4-COOH) = CN[C@@H](Cc1ccc(C(=O)O)cc1)C(=O)O; Phe(3-COOH) = N[C@@H](Cc1cccc(C(=O)O)c1)C(=O)O; NMePhe(3-Cl) = CN[C@@H](Cc1cccc(Cl)c1)C(=O)O; 3Pal(6-NH2) = Nc1ccc(C[C@H](N)C(=O)O)cn1; NMeW = CN[C@@H](Cc1c[nH]c2ccccc12)C(=O)O; Lys(N3) = [N-]=[N+]=NCCCC[C@H](N)C(=O)O; NMeY = CN[C@@H](Cc1ccc(O)cc1)C(=O)O; Nva(3-Et) = CCC(CC)[C@H](N)C(=O)O; NMeF = CN[C@@H](Cc1ccccc1)C(=O)O; 4Pal = N[C@@H](Cc1ccncc1)C(=O)O; PEG4 = NCCOCCOCCOCCOCCC(=O)O; Carboxymethyl = O=C(O)C*; NH(CH2)3NH2 = NCCCN*
Columns and labels:
[1] = biological target: T1, human transferrin receptor (hTfR) (Homo sapiens, UniProt P02786); test: SPR measurement under pH 7.4 conditions (Biacore T200, CM3 chip, hTfR captured by His Tag antibody); format: binding; settings: read-out: hTfR SPR pH7.4 KD
[2] = biological target: T1, human transferrin receptor (hTfR); test: SPR measurement under pH 6.0 conditions (Biacore T200, NTA chip, immobilized hTfR); format: binding; settings: read-out: hTfR SPR pH6.0 KD

T1 sequence (P02786 whole entry): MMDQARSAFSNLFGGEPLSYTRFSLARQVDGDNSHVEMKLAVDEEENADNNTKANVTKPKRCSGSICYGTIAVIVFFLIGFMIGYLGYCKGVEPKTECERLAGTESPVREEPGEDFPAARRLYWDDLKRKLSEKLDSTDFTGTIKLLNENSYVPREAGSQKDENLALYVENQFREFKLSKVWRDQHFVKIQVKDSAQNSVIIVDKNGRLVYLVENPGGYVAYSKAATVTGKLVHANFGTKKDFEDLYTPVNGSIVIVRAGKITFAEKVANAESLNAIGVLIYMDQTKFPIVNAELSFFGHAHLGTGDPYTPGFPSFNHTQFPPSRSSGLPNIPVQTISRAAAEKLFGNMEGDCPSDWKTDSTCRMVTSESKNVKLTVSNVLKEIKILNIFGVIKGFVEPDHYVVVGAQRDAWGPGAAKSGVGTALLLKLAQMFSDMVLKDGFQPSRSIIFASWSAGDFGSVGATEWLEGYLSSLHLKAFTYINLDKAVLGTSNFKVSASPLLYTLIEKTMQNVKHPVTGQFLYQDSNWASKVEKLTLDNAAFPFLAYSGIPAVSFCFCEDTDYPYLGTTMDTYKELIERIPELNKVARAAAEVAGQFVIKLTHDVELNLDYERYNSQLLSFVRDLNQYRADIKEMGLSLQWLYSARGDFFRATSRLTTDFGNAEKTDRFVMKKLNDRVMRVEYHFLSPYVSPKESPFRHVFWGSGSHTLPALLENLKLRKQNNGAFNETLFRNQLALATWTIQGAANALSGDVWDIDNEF

Row | SMILES | pKd ([1]; pH 7.4, single-cycle kinetics) | pKd ([2]; pH 6.0, single-cycle kinetics) | pKd ([1]; SPR, pH 7.4, Table 1-3-2-2) | pKd ([2]; SPR, pH 6.0, Table 1-3-2-2)
1 | CC[C@H](C)[C@@H]1NC(=O)[C@H](Cc2ccc(OC)cc2)NC(=O)[C@H](CCCNC(=N)N)NC(=O)[C@H](CC(N)=O)NC(=O)[C@H](Cc2c[nH]c3ccccc23)N(C)C(=O)[C@H](C(C)C)NC(=O)[C@H](Cc2cccc(Cl)c2)N(C)C(=O)[C@H](C(C)C)NC(=O)[C@H](C)NC(=O)CSC[C@@H](C(=O)NCCOCCOCCOCCOCCC(N)=O)NC(=O)[C@H](Cc2ccc(O)cc2)N(C)C(=O)[C@H](Cc2ccccc2)NC(=O)[C@H](CCCNC(=N)N)NC(=O)[C@H](CCC(N)=O)NC(=O)[C@H]([C@@H](C)CC)NC1=O [compound 174] ({CH2CO}-AV[NMePhe(3-Cl)]V[NMeW]NRY(Me)IIQRF[NMeY]C[PEG4]-NH2; thioether N-15) | 7.69 | 7.12 | – | –
2 | CC[C@H](C)[C@@H]1NC(=O)[C@H](Cc2ccc(OC)cc2)NC(=O)[C@H](CCCNC(=N)N)NC(=O)[C@H](CC(N)=O)NC(=O)[C@H](Cc2c[nH]c3ccccc23)N(C)C(=O)[C@H](C(C)C)NC(=O)[C@H](Cc2cccc(Cl)c2)N(C)C(=O)[C@H](C(C)C)NC(=O)[C@H](C)NC(=O)CSC[C@@H](C(=O)NCCOCCOCCOCCOCCC(N)=O)NC(=O)[C@H](Cc2ccc(O)cc2)N(C)C(=O)[C@H](Cc2ccccc2)NC(=O)[C@H](CCCNC(=N)N)NC(=O)[C@H](CCC(=O)NCCCN)NC(=O)[C@H]([C@@H](C)CC)NC1=O [compound 175] ({CH2CO}-AV[NMePhe(3-Cl)]V[NMeW]NRY(Me)IIE(NH(CH2)3NH2)RF[NMeY]C[PEG4]-NH2; thioether N-15) | 8.52 | 7.91 | – | –
3 | CC[C@H](C)[C@@H]1NC(=O)[C@H](Cc2ccc(OCC(=O)O)cc2)NC(=O)[C@H](Cc2ccc(O)cc2)NC(=O)[C@H](CC(N)=O)NC(=O)[C@H](Cc2c[nH]c3ccccc23)N(C)C(=O)[C@H](C(C)C)NC(=O)[C@H](Cc2cccc(Cl)c2)N(C)C(=O)[C@H](C(C)C)NC(=O)[C@H](C)NC(=O)CSC[C@@H](C(=O)NCCOCCOCCOCCOCCC(N)=O)NC(=O)[C@H](Cc2ccc(O)cc2)N(C)C(=O)[C@H](Cc2cccc(C(=O)O)c2)NC(=O)[C@H](CCCNC(=N)N)NC(=O)[C@H](CCCCN)NC(=O)[C@H]([C@@H](C)CC)NC1=O [compound 177] | 9.87 | 8.65 | – | –
4 | CC[C@H](C)[C@@H]1NC(=O)[C@H](Cc2ccc(OCC(=O)O)cc2)NC(=O)[C@H](Cc2ccc(O)cc2)NC(=O)[C@H](CC(N)=O)NC(=O)[C@H](Cc2c[nH]c3ccccc23)N(C)C(=O)[C@H](C(C)C)NC(=O)[C@H](Cc2cccc(Cl)c2)N(C)C(=O)[C@H](C(C)C)NC(=O)[C@H](C)NC(=O)CSC[C@@H](C(=O)NCCOCCOCCOCCOCCC(N)=O)NC(=O)[C@H](Cc2ccc(C(=O)NCCOCCOCCOCCOCCC(=O)O)cc2)N(C)C(=O)[C@H](Cc2cccc(C(=O)O)c2)NC(=O)[C@H](CCCNC(=N)N)NC(=O)[C@H](CCCCN)NC(=O)[C@H]([C@@H](C)CC)NC1=O [compound 178] ({CH2CO}-AV[NMePhe(3-Cl)]V[NMeW]NYY(Carboxymethyl)IIKR[Phe(3-COOH)][NMePhe(4-COOH)](PEG4)C[PEG4]-NH2; thioether N-15) | 9.41 | 8.51 | – | –
5 | CC[C@H](C)[C@@H]1NC(=O)[C@H](Cc2ccc(OC)cc2)NC(=O)[C@H](Cc2ccc(O)cc2)NC(=O)[C@H](CC(N)=O)NC(=O)[C@H](Cc2c[nH]c3ccccc23)N(C)C(=O)[C@H](C(C)C)NC(=O)[C@H](Cc2cccc(Cl)c2)N(C)C(=O)[C@H](C(C)C)NC(=O)[C@H](C)NC(=O)CSC[C@@H](C(=O)NCCOCCOCCOCCOCCC(N)=O)NC(=O)[C@H](Cc2ccc(C(=O)NCCOCCOCCOCCOCCC(=O)O)cc2)N(C)C(=O)[C@H](Cc2cccc(C(=O)O)c2)NC(=O)[C@H](CCCNC(=N)N)NC(=O)[C@H](CCCCN)NC(=O)[C@H]([C@@H](C)CC)NC1=O [compound 180] ({CH2CO}-AV[NMePhe(3-Cl)]V[NMeW]NYY(Me)IIKR[Phe(3-COOH)][NMePhe(4-COOH)](PEG4)C[PEG4]-NH2; thioether N-15) | 9.64 | 9.02 | – | –
6 | CCC(CC)[C@@H]1NC(=O)[C@H](Cc2ccc(OC)cc2)NC(=O)[C@H](Cc2ccc(N)nc2)NC(=O)[C@H](CC(N)=O)NC(=O)[C@H](Cc2cnc3ccccn23)NC(=O)[C@H](C(C)C)NC(=O)[C@H](Cc2cccc(Cl)c2)N(C)C(=O)[C@H](C(C)C)NC(=O)[C@H](C)NC(=O)CSC[C@@H](C(=O)NCC(=O)N[C@@H](CCCCN=[N+]=[N-])C(N)=O)NC(=O)[C@H](Cc2ccc(C(=O)O)cc2)N(C)C(=O)[C@H](Cc2ccncc2)NC(=O)[C@H](CCCNC(=N)N)NC(=O)[C@H](CCCNC(=N)N)NC(=O)[C@H]([C@@H](C)CC)NC1=O [compound 181] ({CH2CO}-AV[NMePhe(3-Cl)]V[Ala(imidazo(1,2-a)pyr3yl)]N[3Pal(6-NH2)]Y(Me)[Nva(3-Et)]IRR[4Pal][NMePhe(4-COOH)]CG[Lys(N3)]-NH2; thioether N-15) | 7.61 | 6.91 | – | –
7 | CCC(CC)[C@@H]1NC(=O)[C@H](Cc2ccc(OC)cc2)NC(=O)[C@H](Cc2ccc(N)nc2)NC(=O)[C@H](CC(N)=O)NC(=O)[C@H](Cc2cnc3ccccn23)NC(=O)[C@H](C(C)C)NC(=O)[C@H](Cc2cccc(Cl)c2)N(C)C(=O)[C@H](C(C)C)NC(=O)[C@H](C)NC(=O)CSC[C@@H](C(=O)NCC(=O)N[C@H](CCC(=O)O)C(=O)N[C@H](CCC(=O)O)C(=O)N[C@H](CCC(=O)O)C(=O)N[C@H](CO)C(=O)N[C@H](CO)C(=O)N[C@@H](CCCCN=[N+]=[N-])C(N)=O)NC(=O)[C@H](Cc2ccc(C(=O)O)cc2)N(C)C(=O)[C@H](Cc2ccncc2)NC(=O)[C@H](CCCNC(=N)N)NC(=O)[C@H](CCCNC(=N)N)NC(=O)[C@H]([C@@H](C)CC)NC1=O [compound 184] | – | – | 6.87 | 6.92

More lines, now with the values ahead:

Row | pKd ([1]; pH 7.4, single-cycle kinetics) | pKd ([2]; pH 6.0, single-cycle kinetics) | pKd ([1]; SPR, pH 7.4, Table 1-3-2-2) | pKd ([2]; SPR, pH 6.0, Table 1-3-2-2) | SMILES
8 | – | – | 7.54 | 6.42 | CC[C@H](C)[C@@H]1NC(=O)[C@H](Cc2ccc(OC)cc2)NC(=O)[C@H](Cc2ccc(N)nc2)NC(=O)[C@H](CC(N)=O)NC(=O)[C@H](Cc2cnc3ccccn23)NC(=O)[C@H](C(C)C)NC(=O)[C@H](Cc2cccc(Cl)c2)N(C)C(=O)[C@H](C(C)C)NC(=O)[C@H](C)NC(=O)CSC[C@@H](C(=O)NCC(=O)N[C@H](CCC(=O)O)C(=O)N[C@H](CCC(=O)O)C(=O)N[C@H](CCC(=O)O)C(=O)N[C@H](CO)C(=O)N[C@H](CO)C(=O)N[C@@H](CCCCN=[N+]=[N-])C(N)=O)NC(=O)[C@H](Cc2ccc(O)cc2)N(C)C(=O)[C@H](Cc2ccncc2)NC(=O)[C@H](CCCNC(=N)N)NC(=O)[C@H](CCCNC(=N)N)NC(=O)[C@H]([C@@H](C)CC)NC1=O [compound 185]
9 | – | – | 8.00 | 7.51 | CCC(CC)[C@@H]1NC(=O)[C@H](Cc2ccc(O)cc2)NC(=O)[C@H](Cc2ccc(N)nc2)NC(=O)[C@H](CC(N)=O)NC(=O)[C@H](Cc2c[nH]c3ccccc23)N(C)C(=O)[C@H](C(C)C)NC(=O)[C@H](Cc2ccccc2)N(C)C(=O)[C@H](C(C)C)NC(=O)[C@H](C)NC(=O)CSC[C@@H](C(=O)NCC(=O)N[C@@H](CCCCN=[N+]=[N-])C(N)=O)NC(=O)[C@H](Cc2ccc(C(=O)O)cc2)N(C)C(=O)[C@H](Cc2ccc(O)cc2)NC(=O)[C@H](CCCNC(=N)N)NC(=O)[C@H](CCCCN)NC(=O)[C@H]([C@@H](C)CC)NC1=O [compound 187] ({CH2CO}-AV[NMeF]V[NMeW]N[3Pal(6-NH2)]Y[Nva(3-Et)]IKRY[NMePhe(4-COOH)]CG[Lys(N3)]-NH2; thioether N-15)
10 | – | – | 7.47 | 6.76 | CCC(CC)[C@@H]1NC(=O)[C@H](Cc2ccc(O)cc2)NC(=O)[C@H](Cc2ccc(N)nc2)NC(=O)[C@H](CC(N)=O)NC(=O)[C@H](Cc2c[nH]c3ccccc23)N(C)C(=O)[C@H](C(C)C)NC(=O)[C@H](Cc2ccccc2)N(C)C(=O)[C@H](C(C)C)NC(=O)[C@H](C)NC(=O)CSC[C@@H](C(=O)NCC(=O)N[C@H](CCC(=O)O)C(=O)N[C@H](CCC(=O)O)C(=O)N[C@H](CCC(=O)O)C(=O)N[C@H](CO)C(=O)N[C@H](CO)C(=O)N[C@@H](CCCCN=[N+]=[N-])C(N)=O)NC(=O)[C@H](Cc2ccc(C(=O)O)cc2)N(C)C(=O)[C@H](Cc2ccc(O)cc2)NC(=O)[C@H](CCCNC(=N)N)NC(=O)[C@H](CCCCN)NC(=O)[C@H]([C@@H](C)CC)NC1=O [compound 188] ({CH2CO}-AV[NMeF]V[NMeW]N[3Pal(6-NH2)]Y[Nva(3-Et)]IKRY[NMePhe(4-COOH)]CG[dE][dE][dE][dS][dS][Lys(N3)]-NH2; thioether N-15)
11 | – | – | 7.09 | 6.42 | CC[C@H](C)[C@@H]1NC(=O)[C@H](Cc2ccc(OC)cc2)NC(=O)[C@H](Cc2ccc(N)nc2)NC(=O)[C@H](CC(N)=O)NC(=O)[C@H](Cc2cnc3ccccn23)NC(=O)[C@H](C(C)C)NC(=O)[C@H](Cc2ccccc2)N(C)C(=O)[C@H](C(C)C)NC(=O)[C@H](C)NC(=O)CSC[C@@H](C(=O)NCC(=O)N[C@@H](CCCCN=[N+]=[N-])C(N)=O)NC(=O)[C@H](Cc2ccc(C(=O)O)cc2)N(C)C(=O)[C@H](Cc2ccncc2)NC(=O)[C@H](CCCNC(=N)N)NC(=O)[C@H](CCCNC(=N)N)NC(=O)[C@H]([C@@H](C)CC)NC1=O [compound 189] ({CH2CO}-AV[NMeF]V[Ala(imidazo(1,2-a)pyr3yl)]N[3Pal(6-NH2)]Y(Me)IIRR[4Pal][NMePhe(4-COOH)]CG[Lys(N3)]-NH2; thioether N-15)
12 | – | – | 7.24 | 6.75 | CC[C@H](C)[C@@H]1NC(=O)[C@H](Cc2ccc(OC)cc2)NC(=O)[C@H](Cc2ccc(N)nc2)NC(=O)[C@H](CC(N)=O)NC(=O)[C@H](Cc2cnc3ccccn23)NC(=O)[C@H](C(C)C)NC(=O)[C@H](Cc2ccccc2)N(C)C(=O)[C@H](C(C)C)NC(=O)[C@H](C)NC(=O)CSC[C@@H](C(=O)NCC(=O)N[C@@H](CCCCN=[N+]=[N-])C(N)=O)NC(=O)[C@H](Cc2ccc(O)cc2)N(C)C(=O)[C@H](Cc2ccncc2)NC(=O)[C@H](CCCNC(=N)N)NC(=O)[C@H](CCCNC(=N)N)NC(=O)[C@H]([C@@H](C)CC)NC1=O [compound 190] ({CH2CO}-AV[NMeF]V[Ala(imidazo(1,2-a)pyr3yl)]N[3Pal(6-NH2)]Y(Me)IIRR[4Pal][NMeY]CG[Lys(N3)]-NH2; thioether N-15)

From patent EP4667483A1, “HUMAN TRANSFERRIN RECEPTOR-BINDING PEPTIDE” (JCR Pharmaceuticals Co., Ltd., priority 2023, dated 2024)
